Reference: patent US6676954B2, “Controlled release compositions” (Rohm and Haas Company, priority 2000, dated 2004)
Marks after values point to notes of the source that are not given here.

Columns and labels:
[1] = Relative release test: 3-isothiazolone released from the solid composition into water with 0.3% sodium diethylhexylsulfosuccinate (HPLC); assay type: physicochemical; conditions: no paint
Method: The amount of 3-isothiazolone compound released from each controlled release composition was determined according to the following general procedure. A weighed amount of controlled release composition (0.014 g, prepared as described in Example 1) was placed in a 250 mL sample jar. To the jar was then added 200 mL of water containing 0.3% of sodium diethylhexylsulfosuccinate. The solution was then gently stirred to ensure no foam was formed. Aliquots (0.5 mL) were taken at 5 and 24 hours and transferred to a microcentrifuge tube. Each aliquot was then centrifuged at 14,000 rpm for 3 minutes. The supernatant was then removed and analyzed by HPLC (high pressure liquid chromatography) for the amount of the 3-isothiazolone compound. The microcentrifuge tube was then washed with 0.5 mL of water containing 0.3% of sodium diethylhexylsulfosuccinate and the wash liquid added to the sample jar. This ensured that none of the particles removed during sampling was lost and that the volume in the jar remained constant.
The solid compositions were then evaluated using (1) the salt water leaching test as described in Example 3 and the relative release test (5-day) described in Example 2. […]

[2] = Salt water (synthetic-seawater) leaching test: 14C-labelled ITA remaining in the marine paint film; assay type: physicochemical
Method: The efficacy of the 3-isothiazolone/carbon-based adsorbent compositions of the present invention in a paint film was determined by a salt water (synthetic-seawater) leaching evaluation. An appropriate amount of 4,5-dichloro-2-n-octyl-3-isothiazolone (ITA), together with carbon-based adsorbent (C-1, C-2, C-3):
was added to 10 g of a marine antifouling paint formulation (2 different paint types, P-1 and P-2, see below) in a milling jar to provide a final 3-isothiazolone concentration of 2% based on total combined weight of the 3-isothiazolone/carbon-based adsorbent/paint formulation mixture. Paint films were then drawn on silanized microslides to a thickness of 0.076 mm (0.003 inch) for the rosin-based paint formulation (P-1) and to a thickness of 0.178 mm (0.007 inch) for the polishing type marine antifouling paint (P-2). The paint films were dried for 2 days and then the microslides were placed in a synthetic-seawater fish tank for 1 month. The synthetic-seawater was periodically circulated through a filter cartridge containing activated carbon and Celex™ 20 chelating agent (to remove 3-isothiazolone and copper ions). At various times the paint slides were removed and analyzed. The amount of 4,5-dichloro-2-n-octyl-3-isothiazolone remaining in the paint film after exposure to synthetic-seawater was determined by radioactive labeling (^14C-labeled 4,5-dichloro-2-n-octyl-3-isothiazolone).
The salt water leaching test and radioactive labeling measurements were conducted as follows: a small amount of ^14C-4,5-dichloro-2-n-octyl-3-isothiazolone was incorporated with ^12C-4,5-dichloro-2-n-octyl-3-isothiazolone into paint and the radioactivity of trace ^14C-molecules was measured by a Phosphorimager SI spectrometer (manufactured by Molecular Dynamics Co.); a ratio of 4×10^−5 for ^14C-4,5-dichloro-2-n-octyl-3-isothiazolone to every gram of ^12C-4,5-dichloro-2-n-octyl-3-isothiazolone was used.
The prepared slides were placed in synthetic-seawater prepared as follows: the following ingredients (20 liters deionized water, 1350 g NaCl, 225 g MgCl2.6H2O, and 321.6 g Na2B4O7.10H2O in 6 liters deionized water) were combined and adjusted to a pH of 8.2 with 1.0 M HCl solution, after which the total volume was made up to 30 liters with additional deionized water.
The solid compositions were then evaluated using (1) the salt water leaching test as described in Example 3 and the relative release test (5-day) described in Example 2. A summary of the performance of the three inorganic carriers (diatomaceous earth, aluminosilicate and magnesium silicate) relative to the carbon-based adsorbent (activated carbon) composition of the present invention is presented in Table 4.

[3] = paint P-1 (rosin-based), 2% ITA, synthetic seawater
[4] = paint P-2 (polishing type), 2% ITA, synthetic seawater

% 4,5-dichloro-2-n-octyl-3-isothiazolone retained (5-day surfactant solution) ([1]; 5-day release test, retention as stated in the text): 0%
5 Day % Released ([1]; carrier loaded with 30% ITA, 5-day relative release test in surfactant solution): 100%
% ITA Retained in Paint Film, 0 Days [2, 3]: 100%
% ITA Retained in Paint Film, 7 Days [2, 3]: 82%
% ITA Retained in Paint Film, 14 Days (interpolated) ([2]; paint P-1 (rosin-based), 2% ITA, synthetic seawater, 14 days, values in are interpolated): (78) %
% ITA Retained in Paint Film, 30 Days [2, 3]: 70%
Salt Water Leaching Test (28 Days) (% Retained in Paint Film) ([2]; paint P-1, carrier loaded with 30% ITA, 28 days in synthetic seawater): 64%
% ITA Retained in Paint Film, 0 Days [2, 4]: 100%
% ITA Retained in Paint Film, 7 Days [2, 4]: 31-44* %
% ITA Retained in Paint Film, 21 Days ([2]; paint P-2 (polishing type), 2% ITA, synthetic seawater, 21 days): 18%
% ITA Retained in Paint Film, 30 Days [2, 4]: 13%
SMILES: CCCCCCCCn1sc(Cl)c(Cl)c1=O [None, 4,5-dichloro-2-n-octyl-3-isothiazolone]
